Laboratory results reported in ChEMBL document CHEMBL1141460, “Sodium channel blockers” (J Med Chem, 2007).
pIC50, pKi: −log10 of the molar value.

Legend:
[1] = molecular target: Sodium channel protein type 9 subunit alpha (Homo sapiens, UniProt Q15858); assay: Binding affinity to Nav1.7 sodium channel
[2] = molecular target: Sodium channel protein type 10 subunit alpha (Homo sapiens, UniProt Q9Y5Y9); assay: Binding affinity to Nav1.8 sodium channel
[3] = molecular target: Sodium channel protein type 2 subunit alpha (Homo sapiens, UniProt Q99250); assay: Inhibition of inactivated human Nav1.2 sodium channel
[4] = molecular target: Sodium channel protein type 5 subunit alpha (Homo sapiens, UniProt Q14524); assay: Inhibition of inactivated human Nav1.5 sodium channel
[5] = system: Rattus norvegicus; assay: Analgesic activity in ip dosed rat by chung model of neuropathic pain; format: functional
[6] = system: Rattus norvegicus; assay: Analgesic activity in ip dosed rat by CCI model of neuropathic pain; format: functional
[7] = species on record: Rattus norvegicus; assay: Effect on locomotor activity in rat; format: functional
[8] = species on record: Rattus norvegicus; assay: Effect on […] in rat by rotarod test; format: functional

Sequence of Sodium channel protein type 10 subunit alpha (Q9Y5Y9 whole entry): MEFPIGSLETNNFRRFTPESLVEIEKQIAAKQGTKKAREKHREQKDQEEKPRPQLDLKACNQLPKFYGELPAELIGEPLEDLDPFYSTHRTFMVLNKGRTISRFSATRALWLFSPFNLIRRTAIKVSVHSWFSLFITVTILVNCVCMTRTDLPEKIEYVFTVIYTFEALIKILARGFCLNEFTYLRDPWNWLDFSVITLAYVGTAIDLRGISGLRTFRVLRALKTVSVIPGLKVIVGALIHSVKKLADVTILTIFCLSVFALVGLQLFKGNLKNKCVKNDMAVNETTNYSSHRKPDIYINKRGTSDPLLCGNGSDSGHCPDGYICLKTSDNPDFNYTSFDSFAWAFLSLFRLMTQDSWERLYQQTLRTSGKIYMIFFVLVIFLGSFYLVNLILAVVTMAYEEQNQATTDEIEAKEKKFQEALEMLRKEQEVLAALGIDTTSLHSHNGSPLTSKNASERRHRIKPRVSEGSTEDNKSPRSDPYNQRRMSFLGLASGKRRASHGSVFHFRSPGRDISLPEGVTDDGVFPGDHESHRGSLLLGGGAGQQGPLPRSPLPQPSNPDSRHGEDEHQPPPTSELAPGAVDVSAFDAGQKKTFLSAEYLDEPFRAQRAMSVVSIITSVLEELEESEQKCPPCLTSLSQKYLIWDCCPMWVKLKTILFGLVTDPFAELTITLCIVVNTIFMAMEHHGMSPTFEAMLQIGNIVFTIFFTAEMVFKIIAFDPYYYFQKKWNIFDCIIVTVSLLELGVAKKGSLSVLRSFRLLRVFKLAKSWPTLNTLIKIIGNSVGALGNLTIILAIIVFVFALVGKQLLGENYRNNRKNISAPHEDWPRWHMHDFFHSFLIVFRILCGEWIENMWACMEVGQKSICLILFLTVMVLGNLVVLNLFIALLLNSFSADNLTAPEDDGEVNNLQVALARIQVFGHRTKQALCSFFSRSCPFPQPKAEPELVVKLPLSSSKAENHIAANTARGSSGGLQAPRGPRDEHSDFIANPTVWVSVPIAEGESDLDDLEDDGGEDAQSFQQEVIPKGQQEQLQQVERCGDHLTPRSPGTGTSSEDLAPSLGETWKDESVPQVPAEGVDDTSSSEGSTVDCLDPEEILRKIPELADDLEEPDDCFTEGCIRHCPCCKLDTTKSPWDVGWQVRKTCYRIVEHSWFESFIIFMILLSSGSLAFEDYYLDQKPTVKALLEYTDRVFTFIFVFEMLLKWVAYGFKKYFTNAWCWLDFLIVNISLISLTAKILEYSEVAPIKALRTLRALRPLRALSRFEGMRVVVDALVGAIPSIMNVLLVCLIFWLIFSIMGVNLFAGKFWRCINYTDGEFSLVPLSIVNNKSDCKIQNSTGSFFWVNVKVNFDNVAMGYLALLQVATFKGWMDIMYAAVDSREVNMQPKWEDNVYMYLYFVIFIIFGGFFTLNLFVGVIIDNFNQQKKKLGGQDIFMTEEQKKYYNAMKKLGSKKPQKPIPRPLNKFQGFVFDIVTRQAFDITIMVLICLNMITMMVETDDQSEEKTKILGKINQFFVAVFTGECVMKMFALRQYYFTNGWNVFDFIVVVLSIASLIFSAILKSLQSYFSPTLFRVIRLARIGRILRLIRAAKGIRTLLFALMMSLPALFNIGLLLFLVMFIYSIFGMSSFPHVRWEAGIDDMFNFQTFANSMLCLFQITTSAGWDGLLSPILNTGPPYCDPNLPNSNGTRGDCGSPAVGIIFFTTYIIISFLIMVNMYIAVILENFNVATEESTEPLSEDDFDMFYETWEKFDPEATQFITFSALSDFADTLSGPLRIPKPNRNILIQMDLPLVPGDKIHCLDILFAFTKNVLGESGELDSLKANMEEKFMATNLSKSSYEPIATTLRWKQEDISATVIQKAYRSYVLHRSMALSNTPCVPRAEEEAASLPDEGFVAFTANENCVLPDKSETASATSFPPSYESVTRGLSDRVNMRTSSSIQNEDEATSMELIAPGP
Sequence of Sodium channel protein type 2 subunit alpha (Q99250 whole entry): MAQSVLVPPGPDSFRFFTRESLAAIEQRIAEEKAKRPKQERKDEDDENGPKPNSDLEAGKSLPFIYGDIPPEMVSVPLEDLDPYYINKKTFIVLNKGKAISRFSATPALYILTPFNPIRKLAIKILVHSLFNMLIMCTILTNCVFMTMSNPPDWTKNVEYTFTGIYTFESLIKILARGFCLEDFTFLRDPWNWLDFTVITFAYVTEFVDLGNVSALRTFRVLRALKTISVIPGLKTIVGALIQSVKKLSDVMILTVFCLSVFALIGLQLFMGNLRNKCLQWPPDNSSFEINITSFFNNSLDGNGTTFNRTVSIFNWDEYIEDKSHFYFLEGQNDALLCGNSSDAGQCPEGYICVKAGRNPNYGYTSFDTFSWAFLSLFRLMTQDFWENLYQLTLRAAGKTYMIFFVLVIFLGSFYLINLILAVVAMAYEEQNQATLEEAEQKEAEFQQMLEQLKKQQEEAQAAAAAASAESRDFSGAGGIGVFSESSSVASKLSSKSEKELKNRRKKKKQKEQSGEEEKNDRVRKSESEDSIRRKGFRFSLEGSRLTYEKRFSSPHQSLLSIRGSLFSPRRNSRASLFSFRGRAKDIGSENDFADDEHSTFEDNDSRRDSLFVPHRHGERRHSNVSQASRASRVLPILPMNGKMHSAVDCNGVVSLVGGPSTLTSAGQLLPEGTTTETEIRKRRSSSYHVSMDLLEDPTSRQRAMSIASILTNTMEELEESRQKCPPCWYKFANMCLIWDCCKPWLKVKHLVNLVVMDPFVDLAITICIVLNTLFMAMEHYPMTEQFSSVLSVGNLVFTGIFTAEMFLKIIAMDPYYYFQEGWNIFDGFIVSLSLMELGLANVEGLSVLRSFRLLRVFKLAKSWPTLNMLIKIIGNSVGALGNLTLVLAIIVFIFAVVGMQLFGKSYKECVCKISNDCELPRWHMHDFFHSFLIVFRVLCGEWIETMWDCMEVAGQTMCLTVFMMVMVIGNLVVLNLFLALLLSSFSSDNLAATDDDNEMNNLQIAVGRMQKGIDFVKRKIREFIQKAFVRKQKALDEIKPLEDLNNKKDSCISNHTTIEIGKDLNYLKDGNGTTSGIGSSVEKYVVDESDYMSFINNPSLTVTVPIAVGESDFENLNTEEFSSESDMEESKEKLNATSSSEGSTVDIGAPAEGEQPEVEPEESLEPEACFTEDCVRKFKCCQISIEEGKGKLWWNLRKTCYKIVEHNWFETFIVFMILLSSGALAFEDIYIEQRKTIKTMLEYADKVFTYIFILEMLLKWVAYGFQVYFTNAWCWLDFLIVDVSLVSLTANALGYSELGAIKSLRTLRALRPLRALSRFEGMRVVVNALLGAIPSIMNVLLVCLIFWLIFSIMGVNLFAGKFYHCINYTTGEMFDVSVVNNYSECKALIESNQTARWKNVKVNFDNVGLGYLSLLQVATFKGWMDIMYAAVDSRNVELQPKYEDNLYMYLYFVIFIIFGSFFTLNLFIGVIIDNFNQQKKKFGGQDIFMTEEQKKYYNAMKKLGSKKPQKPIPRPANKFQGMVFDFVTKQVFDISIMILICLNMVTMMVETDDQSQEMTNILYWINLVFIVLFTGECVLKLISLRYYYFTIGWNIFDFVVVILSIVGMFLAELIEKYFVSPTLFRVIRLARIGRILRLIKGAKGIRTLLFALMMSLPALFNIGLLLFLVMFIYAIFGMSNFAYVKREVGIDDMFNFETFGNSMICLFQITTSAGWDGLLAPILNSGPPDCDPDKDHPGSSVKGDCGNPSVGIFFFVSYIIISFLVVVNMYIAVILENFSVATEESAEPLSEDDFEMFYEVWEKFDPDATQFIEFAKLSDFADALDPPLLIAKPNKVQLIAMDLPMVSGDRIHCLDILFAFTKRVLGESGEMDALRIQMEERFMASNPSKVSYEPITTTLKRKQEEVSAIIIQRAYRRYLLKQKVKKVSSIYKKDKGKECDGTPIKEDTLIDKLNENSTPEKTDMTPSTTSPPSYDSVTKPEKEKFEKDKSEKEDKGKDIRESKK

pKi [1]	pKi [2]	pIC50 [3]	SMILES	pIC50 [4]	ED50 [5] [µM]	ED50 [6] [µM]	ED50 [7] [µM]	ED50 [8] [µM]
6.60	6.74	–	CN(Cc1ccc(-c2ccccc2S(N)(=O)=O)cc1)C(=O)[C@@H]1CCC[C@H]1C(=O)NCc1ccc(OC(F)(F)F)cc1	–	–	–	–	–
–	–	5.14	COc1cc(NC(=O)c2ccc(-c3ccc(Cl)cc3)o2)cc(OC)c1	5.13	47	86	>300	>300
